According to PMC10685318, “Trans-cyclosulfamidate mannose-configured cyclitol allows isoform-dependent inhibition of GH47 α-D-mannosidases through a bump–hole strategy” (Chemical Science, 2023):

Key:
BtMan2A = target: T1, BtMan2A (Bacteroides thetaiotaomicron, UniProt Q8AAK6); test: 4-MU activity assay for bacterial GH2 β-mannosidase, purified enzyme; assay type: biochemical
T1 construct: made in house; donated by Dr. W. Offen, University of York
Experimental: (§1) Trans-Cyclosulfamidate Cyclitols Males et al.
2.3 GH38 α-mannosidases and GH2 β-mannosidase inhibition studies
All chemicals were of analytical grade and purchased from Sigma-Aldrich unless stated otherwise.
Optimal stability of cell homogenates and enzyme working stocks was ensured by preparation and temporary storage on ice. Cell homogenates were prepared and used on the same day. Protein concentrations were quantified using the Pierce BCA Protein Assay Kit (ThermoFisher). Protein samples were measured in clear flat-bottom polystyrene 96 well microplates (Greiner Bio-One) using a EMax Plus Microplate Reader (Molecular Devices). Activity measurements of human GH38 α-mannosidases and bacterial β-mannosidase BtMan2A were performed in black flat-bottom polystyrene 96 wells microplates (Greiner Bio-One) and total fluorescence was measured using a Perkin Elmer LS-55 fluorescence spectrometer at wavelengths λex = 366 and λem = 445 nm, with the signal optimized for medium gain readings. The fluorescence values of each enzyme sample were corrected for the background signal of a blank sample containing no enzyme. In the case of IC50 determinations, values were normalized against a control sample containing enzyme without added inhibitor. […]

CkGH47 WT = CkGH47 WT (Caulobacter sp. K31, UniProt B0SWV2); test: Inhibition of CkGH47 WT monitored by enzymatic conversion of α-1,2-mannobiose to mannose; assay type: biochemical, Caulobacter K31 strain; details: for inhibition of the wild-type GH47 model enzyme: even at high inhibitor concentrations
Experimental: as §1
Figure S4. Inhibition of CkGH47 by 6 monitored by the enzymatic conversion of mannobiose to mannose. 3 concentrations of the […]
and the reaction was incubated for 1 hour at 22 °C. The enzyme was heat denatured (90 °C for 5 minutes). Using the mannose detection kit, NADPH production at 340 nm was measured and converted to mannose concentration using a standard curve of […]
Figure S5. Docking of 6, in pink, into the crystal structure of Caulobacter GH47 (PDB ID: 4AYO), in gold, showing the distance between the oxygen of 6 and L310. Left: 6 was docked into the CkGH47 enzyme active site by least squares fit superposition in coot against the CkGH47 and kifunensine complex (PDB ID 5NE5). Right: Position of CkGH47 WT crystal structures of the inhibitors 6 (pink) and kifunensine (green); native is shown in gold (PDB ID: 4AYO) and CkGH47 in complex with kifunensine is shown in orange (PDB ID: 5NE5); there are 2 alternate conformations of leucine each with 50% occupancy in the crystal structure. […]
2.1 Biochemical and biological methods
To obtain Michaelis-Menten kinetics
Lastly, to achieve an inhibition constant, the
The gradient of the graph, V0/Vi
After taking each time point, the sample was heat denatured at 95 °C for 5 minutes. The reactions were conducted in triplicate and averaged. […]
microplate spectrophotometer (BioTek). The mannose detection kit (Megazyme) was used to detect […]
dehydrogenase, was monitored at 340 nm. The absorbance after hexokinase was added to the mixture […]
2.1.2 Isothermal titration calorimetry
MicroCal ITC200 calorimeter at 25 °C over 20 injections. The experiment was duplicated to obtain a […]
the MicroCal PEAK-ITC analysis software.
2.2 Crystallographic data collection and refinement of CkGH47
3′ and the reverse primer was 5′-[…]-3′. Protein production and purification was followed as described previously.[3]
Reference data in the form of a
Refinement of the model was conducted […]
conformation was conducted using […]. Details of the data collection and refinement statistics […]

[1] = Chemical stability of the final compounds on storage; assay type: physicochemical
From the text: 1,6-Cis-manno-cyclosulfate, 4, and 1,6-trans-manno-cyclosulfate, 5, were synthesized from mannose-configured cis-diol and trans-diol, respectively (ESI, Scheme S1 ^†).

CkGH47 WT, sequence (B0SWV2 entry or part of it): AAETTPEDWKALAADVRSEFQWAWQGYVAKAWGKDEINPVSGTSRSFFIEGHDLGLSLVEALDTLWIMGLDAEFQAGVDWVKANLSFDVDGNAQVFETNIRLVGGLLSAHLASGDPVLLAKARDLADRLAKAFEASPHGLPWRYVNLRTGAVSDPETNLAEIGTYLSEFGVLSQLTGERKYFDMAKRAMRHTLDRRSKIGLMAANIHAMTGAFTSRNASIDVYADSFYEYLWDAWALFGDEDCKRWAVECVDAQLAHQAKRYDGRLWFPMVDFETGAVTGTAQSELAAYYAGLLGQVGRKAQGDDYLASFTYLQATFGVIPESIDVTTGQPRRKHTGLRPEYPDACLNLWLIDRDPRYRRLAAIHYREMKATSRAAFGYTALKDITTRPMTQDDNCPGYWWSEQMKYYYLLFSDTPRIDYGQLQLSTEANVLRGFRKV
T1 sequence (Q8AAK6 entry or part of it, change not shown): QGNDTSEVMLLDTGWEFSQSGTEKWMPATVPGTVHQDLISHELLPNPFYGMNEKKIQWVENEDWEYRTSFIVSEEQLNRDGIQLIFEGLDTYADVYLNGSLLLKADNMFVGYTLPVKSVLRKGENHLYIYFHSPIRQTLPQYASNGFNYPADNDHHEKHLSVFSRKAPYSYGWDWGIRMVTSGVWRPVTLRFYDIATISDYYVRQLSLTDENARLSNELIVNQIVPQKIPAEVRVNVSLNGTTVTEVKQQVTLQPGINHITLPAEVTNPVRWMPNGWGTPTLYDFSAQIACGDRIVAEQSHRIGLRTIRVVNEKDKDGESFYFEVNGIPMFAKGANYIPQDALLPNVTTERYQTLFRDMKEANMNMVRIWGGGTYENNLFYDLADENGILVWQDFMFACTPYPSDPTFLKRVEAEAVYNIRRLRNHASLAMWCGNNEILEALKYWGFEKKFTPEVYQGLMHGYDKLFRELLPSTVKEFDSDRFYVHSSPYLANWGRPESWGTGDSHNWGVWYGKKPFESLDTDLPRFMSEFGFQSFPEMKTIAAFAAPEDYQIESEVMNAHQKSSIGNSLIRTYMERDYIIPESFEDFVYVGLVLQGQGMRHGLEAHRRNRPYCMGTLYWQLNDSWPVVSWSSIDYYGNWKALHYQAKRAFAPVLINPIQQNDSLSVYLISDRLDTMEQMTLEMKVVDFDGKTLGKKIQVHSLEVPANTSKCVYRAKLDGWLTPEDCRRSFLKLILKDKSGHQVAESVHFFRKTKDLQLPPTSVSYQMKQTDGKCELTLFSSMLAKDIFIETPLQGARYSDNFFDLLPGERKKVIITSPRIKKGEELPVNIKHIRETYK

## O=S1(=O)N[C@@H]2[C@@H](O)[C@@H](O)[C@H](O)[C@@H](CO)[C@H]2O1 [compound 6, 1,6-trans-manno-cyclosulfamidate]
BtMan2A
  IC50: > 1 mM
CkGH47 WT; after the addition of 1 mM 6
  α-1,2-mannobiose hydrolysed by the WT GH47 mannosidase to mannose: 82%
CkGH47 WT
  inhibition of the wild-type GH47 model enzyme: no significant inhibition
CkGH47 WT; listed as 1,6-trans-cyclic sulfamidate
  inhibition of the wild-type GH47 model enzyme: does not inhibit
[1]
  chemical stability: chemically stable
